How the values were obtained:
[1] = Inhibition of human RFC expressed in Chinese Hamster MTXRII-OuaR2-4 R2 cells assessed as reduction in cell proliferation after 96 hrs by CellTiter-blue assay
[2] = Inhibition of human PCFT expressed in Chinese Hamster MTXRII-OuaR2-4 R2 cells assessed as reduction in cell proliferation after 96 hrs by CellTiter-blue assay
[3] = Inhibition of human FRbeta expressed in Chinese Hamster MTXRII-OuaR2-4 R2 cells assessed as reduction in cell proliferation after 96 hrs by CellTiter-blue assay
[4] = Inhibition of human FRalpha expressed in Chinese Hamster MTXRII-OuaR2-4 R2 cells assessed as reduction in cell proliferation after 96 hrs by CellTiter-blue assay

Row | SMILES | IC50 [1] [nM] | IC50 [2] [nM] | IC50 [3] [nM] | IC50 [4] [nM]
1 | Nc1nc2sc(CCCCc3cc(C(=O)N[C@@H](CCC(=O)O)C(=O)O)cs3)cc2c(=O)[nH]1 | > 1000 | > 1000 | 1.2 | 0.91
2 | Nc1nc2sc(CCCCc3csc(C(=O)N[C@@H](CCC(=O)O)C(=O)O)c3)cc2c(=O)[nH]1 | > 1000 | 460 | 5.6 | 5.6
3 | Nc1nc2sc(CCCCc3ccc(C(=O)N[C@@H](CCC(=O)O)C(=O)O)s3)cc2c(=O)[nH]1 | > 1000 | > 1000 | 1.7 | 2.6
4 | Nc1nc2sc(CCCCc3ccc(C(=O)N[C@@H](CCC(=O)O)C(=O)O)o3)cc2c(=O)[nH]1 | > 1000 | > 1000 | 2.6 | 11
5 | Nc1nc2sc(CCCc3ccc(C(=O)N[C@@H](CCC(=O)O)C(=O)O)s3)cc2c(=O)[nH]1 | > 1000 | > 1000 | 1.8 | 0.34
6 | Nc1nc2sc(CCCc3csc(C(=O)N[C@@H](CCC(=O)O)C(=O)O)c3)cc2c(=O)[nH]1 | > 1000 | 107 | 0.24 | 0.44
7 | Nc1nc2sc(CCCc3cc(C(=O)N[C@@H](CCC(=O)O)C(=O)O)cs3)cc2c(=O)[nH]1 | > 1000 | 80 | 0.72 | 1.1
8 | Nc1nc2sc(CCCCc3ccc(C(=O)N[C@@H](CCC(=O)O)C(=O)O)cc3)cc2c(=O)[nH]1 [(S)-2-(4-(4-(2-amino-4-oxo-3,4-dihydrothieno[2,3-d]pyrimidin-6-yl)butyl)benzamido)pentanedioic acid] | > 1000 |  | 20 | 9
